The source of these data is patent publication US11377442B2, “Small molecule agonists and antagonists of NR2F6 activity” (ZANDER THERAPEUTICS, INC., priority 2016, dated 2022).

Structures are written as SMILES. Like-named read-outs stand apart in the source and are kept apart here.

Holding throughout (format): cell-based
One assay concerns Renilla. Briefly: Renilla signal in NR2F6 agonist screening, cmpd/DMSO. Particulars: Renilla.
In a further assay the target is T1, ERα (Homo sapiens, UniProt P03372).
T1 construct: expressed in transfected cells
T1 sequence (P03372 1-595): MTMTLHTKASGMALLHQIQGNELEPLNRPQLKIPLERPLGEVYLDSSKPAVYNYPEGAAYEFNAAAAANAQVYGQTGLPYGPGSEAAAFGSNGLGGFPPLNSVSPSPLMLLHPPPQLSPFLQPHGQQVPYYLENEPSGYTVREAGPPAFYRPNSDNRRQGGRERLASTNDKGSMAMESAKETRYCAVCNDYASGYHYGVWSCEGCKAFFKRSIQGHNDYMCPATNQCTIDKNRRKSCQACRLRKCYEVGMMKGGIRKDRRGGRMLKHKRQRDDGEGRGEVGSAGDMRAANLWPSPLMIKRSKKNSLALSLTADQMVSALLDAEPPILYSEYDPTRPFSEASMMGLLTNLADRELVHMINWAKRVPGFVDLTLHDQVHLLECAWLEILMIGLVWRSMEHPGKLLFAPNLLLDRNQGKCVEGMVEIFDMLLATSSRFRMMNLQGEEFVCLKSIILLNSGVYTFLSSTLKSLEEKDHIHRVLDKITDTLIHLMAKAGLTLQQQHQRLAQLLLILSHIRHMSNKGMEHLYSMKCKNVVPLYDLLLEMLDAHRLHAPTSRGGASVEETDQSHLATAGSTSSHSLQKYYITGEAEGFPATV
The assay is described as follows: Counterscreening, Firefly signal with ERα transient transfection (Firefly_ERa). To be noted: ERα transient transfection, 10 μM. The protocol: The methodology for screening candidate compounds as NR2F6 agonists was as follows: For primary screening, hit criteria was ACT %>DMSO control+5*SD (DSO control) at 10 μM, or any compound with S/B>2. For rescreening, hit criteria was ACT %>DMSO control+3*SD (DSO control) in each replicate at 10 μM. For counterscreening, hit criteria was mean ACT<DMSO control+3*SD (DMSO control) with ERα transient transfection in duplicate at 10 μM.
(In general: Counterscreens check selectivity or assay interference.)

The subject of the next assay is Renilla_ERa. Briefly: Renilla signal in ERα counterscreen (Renilla_ERa). Particulars: ERα transient transfection, 10 μM.
The target in another assay is T2, NR2F6 (Homo sapiens, UniProt P10588).
T2 construct: expressed in transfected cells; also transient transfection
T2 sequence (P10588 1-404): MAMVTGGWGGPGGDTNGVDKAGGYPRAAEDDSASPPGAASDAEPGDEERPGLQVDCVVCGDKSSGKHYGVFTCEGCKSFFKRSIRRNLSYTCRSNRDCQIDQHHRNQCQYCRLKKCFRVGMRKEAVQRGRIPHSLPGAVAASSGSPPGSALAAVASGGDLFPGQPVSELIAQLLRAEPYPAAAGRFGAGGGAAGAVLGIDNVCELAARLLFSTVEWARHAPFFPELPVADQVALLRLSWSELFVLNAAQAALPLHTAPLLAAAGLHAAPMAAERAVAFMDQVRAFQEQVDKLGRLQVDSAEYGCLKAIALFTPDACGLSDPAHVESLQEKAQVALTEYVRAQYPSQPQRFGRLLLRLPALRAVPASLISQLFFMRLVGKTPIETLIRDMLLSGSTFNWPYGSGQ
The assay is described as follows: NR2F6 agonist screening, Firefly signal cmpd/DMSO. Particulars: for Firefly F4, cmpd/DMSO (mean): Table 14; for Firefly, cmpd/DMSO repeat 1 / Firefly, cmpd/DMSO repeat 2: first set screening, 10 μM.

A further assay concerns HEK293 pGL4. The assay is described as follows: Firefly_pGL signal, cmpd/DMSO (pGL4 control cells). To be noted: Homo sapiens, HEK293, Table 14, read-out: Firefly pGL4, cmpd/DMSO (mean).
Where [1] appears, read: Table 14, read-out: Renilla F4, cmpd/DMSO (mean).
[2] abbreviates: Table 14, 10 uM, read-out: Renilla F4, cmpd/DMSO (mean).
The mark [3] stands for this setting: first set screening, 10 μM, repeat 1, read-out: Renilla, cmpd/DMSO repeat 1.
Where [4] appears, read: first set screening, 10 μM, repeat 2, read-out: Renilla, cmpd/DMSO repeat 2.
The mark [5] stands for this setting: repeat 1, read-out: Renilla_ERa, cmpd/DMSO repeat 1.
The mark [6] stands for this setting: repeat 2, read-out: Renilla_ERa, cmpd/DMSO repeat 2.

For the compound `Cc1ccn2cc(-c3ccc(F)cc3)cc2c1` [Compound 17], the fold induction at 2 µM in the assay on Renilla (setting [1]) stood at 0.8; in the assay on HEK293 pGL4 it was 1.7. The fold induction at 10 µM in the assay with Renilla (setting [2]) worked out at 1; in the assay with Renilla (setting [3]) it was 1.3; in the assay on Renilla (setting [4]) it was 1.4; with Renilla_ERa (setting [5]) it was 1.3; in the assay with Renilla_ERa (setting [6]), 1; with HEK293 pGL4, 1.6. Also, the fold induction at 40 µM stood at 1 in the assay on Renilla (setting [1]) and 1.3 in the assay with HEK293 pGL4. Moreover, on ERα, the “Firefly_ERa, cmpd/DMSO repeat 1” value is on record as 2.5. On ERα, the “Firefly_ERa, cmpd/DMSO repeat 2” value came to 2.2. Further, the “Firefly F4, cmpd/DMSO (mean)” value at NR2F6 (2 uM) was found to be 1.9; on NR2F6 (10 uM), 1.2; at NR2F6 (40 uM), 1.3. Also, on NR2F6, the “Firefly, cmpd/DMSO repeat 1” value turned out to be 2.2. Besides, the “Firefly, cmpd/DMSO repeat 2” value on NR2F6 is 2.4.
Consider `COc1ccc(-c2cn3cccc(C)c3n2)cc1` [Compound 19], for which the fold induction at 2 µM in the assay with Renilla (setting [1]) worked out at 1.1; with HEK293 pGL4, 1.9. Further, the fold induction at 10 µM with Renilla (setting [2]) was 1; with Renilla (setting [3]), 1.6; in the assay with Renilla (setting [4]), 1.7; with Renilla_ERa (setting [5]) it was 1.2; in the assay with Renilla_ERa (setting [6]) it was 1; with HEK293 pGL4 it was 1.3. The fold induction at 40 µM with Renilla (setting [1]) is 0.6; in the assay on HEK293 pGL4 it was 0.9. Also, the “Firefly_ERa, cmpd/DMSO repeat 1” value on ERα worked out at 2.3. Besides, the “Firefly_ERa, cmpd/DMSO repeat 2” value on ERα is 2.4. In addition, the “Firefly F4, cmpd/DMSO (mean)” value at NR2F6 (2 uM) is reported as 1.7; on NR2F6 (10 uM), 1.0; on NR2F6 (40 uM), 0.5. In addition, the “Firefly, cmpd/DMSO repeat 1” value at NR2F6 came out at 2.2. For the same compound, the “Firefly, cmpd/DMSO repeat 2” value on NR2F6 was determined as 1.7.
In the case of `O=C(COc1ccccc1C(=O)N1CCOCC1)NCCc1ccccc1` [Compound 22], the fold induction at 2 µM with Renilla (setting [1]) is 0.8; in the assay with HEK293 pGL4, 1.6. The fold induction at 10 µM in the assay with Renilla (setting [2]) is 1.1; in the assay with Renilla (setting [3]), 1.1; in the assay on Renilla (setting [4]) it was 1.3; in the assay with Renilla_ERa (setting [5]) it was 0.8; in the assay with Renilla_ERa (setting [6]), 1.1; with HEK293 pGL4 it was 1. The fold induction at 40 µM was determined as 1 with Renilla (setting [1]) and 1.5 in the assay on HEK293 pGL4. For the same compound, the “Firefly_ERa, cmpd/DMSO repeat 1” value on ERα is given as 1.5. Further, the “Firefly_ERa, cmpd/DMSO repeat 2” value on ERα was 2.2. In addition, the “Firefly F4, cmpd/DMSO (mean)” value at NR2F6 (2 uM) is listed as 1.3; on NR2F6 (10 uM), 1.4; at NR2F6 (40 uM), 0.6. For the same compound, the “Firefly, cmpd/DMSO repeat 1” value on NR2F6 stood at 2.1. Also, the “Firefly, cmpd/DMSO repeat 2” value at NR2F6 is reported as 2.9.
Regarding `Cc1cc(NC(=O)CCS(=O)(=O)c2nc(-c3ccc4c(c3)OCO4)cc(C(F)(F)F)n2)no1` [Compound C1], the fold induction at 2 µM in the assay on Renilla (setting [1]) amounted to 2.1; in the assay on HEK293 pGL4 it was 0.7. Besides, the fold induction at 10 µM amounted to 0.2 in the assay with Renilla (setting [2]); 4.1 in the assay on Renilla (setting [3]); 1.5 in the assay with Renilla (setting [4]); 1.3 in the assay with Renilla_ERa (setting [5]); 1.2 with Renilla_ERa (setting [6]); 0.7 with HEK293 pGL4. In addition, the fold induction at 40 µM in the assay on Renilla (setting [1]) came out at 0.2; with HEK293 pGL4 it was 0.6. For the same compound, the “Firefly_ERa, cmpd/DMSO repeat 1” value at ERα was 1.0. Besides, the “Firefly_ERa, cmpd/DMSO repeat 2” value at ERα was determined as 1.0. In addition, the figures for the “Firefly F4, cmpd/DMSO (mean)” value on NR2F6 (2 uM), at NR2F6 (10 uM) and on NR2F6 (40 uM) were 0.5, 0.5 and 0.4, respectively. Moreover, on NR2F6, the “Firefly, cmpd/DMSO repeat 1” value was determined as 3.4. For the same compound, the “Firefly, cmpd/DMSO repeat 2” value at NR2F6 turned out to be 4.1. Moreover, the “activity (in words)” value at NR2F6 (screening result) is reported as “particularly good activity”.
Take `Cc1ccc(-c2nc3ccccc3c(=O)[nH]2)cc1` [Compound C3]: the results for the fold induction at 2 µM in the assay with Renilla (setting [1]) and with HEK293 pGL4 were 1 and 1.1, respectively. Further, the fold induction at 10 µM turned out to be 0.9 in the assay with Renilla (setting [2]); 1.6 in the assay on Renilla (setting [3]); 1.2 in the assay with Renilla (setting [4]); 1.1 in the assay with Renilla_ERa (setting [5]); 1.2 with Renilla_ERa (setting [6]); 1.3 with HEK293 pGL4. For the same compound, the fold induction at 40 µM in the assay on Renilla (setting [1]) was found to be 0.9; with HEK293 pGL4, 1. In addition, on ERα, the “Firefly_ERa, cmpd/DMSO repeat 1” value is on record as 1.8. Further, at ERα, the “Firefly_ERa, cmpd/DMSO repeat 2” value is 1.9. Moreover, the “Firefly F4, cmpd/DMSO (mean)” value on NR2F6 (2 uM) is reported as 1.5; at NR2F6 (10 uM) it was 1.1; on NR2F6 (40 uM), 0.9. Also, the “Firefly, cmpd/DMSO repeat 1” value at NR2F6 was 2.0. The “Firefly, cmpd/DMSO repeat 2” value at NR2F6 was 2.0.
As for `CCOC(=O)c1cnn2c(-c3ccc(Cl)cc3)ccnc12` [Compound C4], the fold induction at 2 µM is 0.6 in the assay on Renilla (setting [1]) and 1 in the assay with HEK293 pGL4. Moreover, the fold induction at 10 µM in the assay on Renilla (setting [2]) turned out to be 0.5; in the assay on Renilla (setting [3]) it was 1.6; in the assay with Renilla (setting [4]), 1.5; in the assay on Renilla_ERa (setting [5]), 1.1; with Renilla_ERa (setting [6]) it was 1.2; in the assay on HEK293 pGL4, 0.9. Also, the fold induction at 40 µM in the assay with Renilla (setting [1]) came to 0.5; with HEK293 pGL4, 1.3. For the same compound, the “Firefly_ERa, cmpd/DMSO repeat 1” value on ERα was 1.6. In addition, the “Firefly_ERa, cmpd/DMSO repeat 2” value at ERα is recorded as 1.7. For the same compound, the “Firefly F4, cmpd/DMSO (mean)” value at NR2F6 (2 uM) is given as 1.1; at NR2F6 (10 uM), 0.8; on NR2F6 (40 uM) it was 0.7. The “Firefly, cmpd/DMSO repeat 1” value at NR2F6 is listed as 2.5. The “Firefly, cmpd/DMSO repeat 2” value at NR2F6 came to 2.5.
For `CNC(=O)c1ccc2c(c1)N=C(C)c1cc(C)ccc1S2` [Compound C9], the fold induction at 10 µM in the assay on Renilla (setting [3]) stood at 2.4; in the assay with Renilla (setting [4]) it was 2.5; in the assay with Renilla_ERa (setting [5]) it was 0.9; with Renilla_ERa (setting [6]), 1. In addition, at ERα, the “Firefly_ERa, cmpd/DMSO repeat 1” value is recorded as 2.5. The “Firefly_ERa, cmpd/DMSO repeat 2” value at ERα is 2.4. Also, the “Firefly, cmpd/DMSO repeat 1” value on NR2F6 came out at 2.7. Also, the “Firefly, cmpd/DMSO repeat 2” value at NR2F6 came to 1.9.
For the compound `COc1cc(Nc2c3c(nc4ccc(Cl)cc24)CCC3)cc(OC)c1OC` [Compound C10], the fold induction at 10 µM with Renilla (setting [3]) turned out to be 3.1; in the assay on Renilla (setting [4]) it was 1.6; in the assay on Renilla_ERa (setting [5]), 0.7; in the assay with Renilla_ERa (setting [6]) it was 0.8. The “Firefly_ERa, cmpd/DMSO repeat 1” value at ERα was 1.0. On ERα, the “Firefly_ERa, cmpd/DMSO repeat 2” value came to 1.3. Further, the “Firefly, cmpd/DMSO repeat 1” value at NR2F6 is given as 2.1. At NR2F6, the “Firefly, cmpd/DMSO repeat 2” value is recorded as 2.6.
As for `CCn1c(=O)c2cc(C(=O)Nc3ccc4c(C)cc(=O)oc4c3)sc2c2ccccc21` [Compound C16], the fold induction at 10 µM with Renilla (setting [3]) stood at 3.9; in the assay on Renilla (setting [4]), 3.2; in the assay with Renilla_ERa (setting [5]), 0.9; with Renilla_ERa (setting [6]) it was 1.1. At ERα, the “Firefly_ERa, cmpd/DMSO repeat 1” value is given as 1.0. Further, at ERα, the “Firefly_ERa, cmpd/DMSO repeat 2” value was 0.9. Besides, the “Firefly, cmpd/DMSO repeat 1” value on NR2F6 is reported as 2.7. Moreover, on NR2F6, the “Firefly, cmpd/DMSO repeat 2” value is recorded as 2.3.
